22 compounds from patent publication US20260152487A1 (Sitryx Therapeutics Limited, priority 2021, published 2026) can be followed below.

A word on the Emax: it is the greatest response seen or fitted, relative to the assay's reference. By EC50 is commonly meant the concentration needed to bring the measured effect to its halfway point. As a reminder, the IC50 is the concentration needed to halve the response being measured. Read a high IC50 as lower potency.

Assay [1] concerns the target T1, recombinant human PKM2 (Homo sapiens, UniProt P14618).
T1 construct: His (N); purchased R&D Systems
As to the kind of experiment: Human PKM2 activation assay (Kinase-Glo Plus luminescent detection of generated ATP). The format is biochemical. As to conditions: for Emax: percentage activation normalised to DMSO vehicle (LOW) and 5 μM TEPP-46 (HIGH), read-out: hPKM2 Emax; for EC50: recombinant human PKM2 activation, 4-parameter logistic fit, read-out: hPKM2 EC50. Summed up: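 Luminescent ATP detection (Kinase-Glo Plus, 15 min, 26 °C) followed a 60 min, 26 °C shaken reaction of compound with […] His-tagged human PKM2, PEP and ADP in imidazole/KCl/MgCl2 buffer with Tween20 and BSA, pH 7.2.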

For assay [2], the system named is A549 cells. As to the kind of experiment: A549 cell proliferation in low-serine medium (CellTiter-Glo 2.0 viable cell number). The format is cell-based. The settings on record: Homo sapiens, 72 h, 3 days, Assay Medium with 20 μM L-serine. The protocol:
The effect of compounds of Formula (Ia) on A549 cell proliferation in low-serine medium was assessed using a luminescence assay of viable cell number (CellTiter-Glo® 2.0, Promega) duplexed with a fluorescent cytotoxicity assessment (CelITox™ Green, Promega). Cell culture reagents were from ThermoFisher unless specified otherwise. Assay reagents were from Sigma-Aldrich unless specified otherwise. Test Compounds were prepared as 10 mM DMSO stocks and dilution series prepared in DMSO for direct dilution into culture medium.
Cells were passaged every 3-4 days at 80-90% confluence. The cell monolayer was washed twice with room-temperature Ca^2+/Mg-free PBS and 4 ml room-temperature trypsin-EDTA added to the flask. After 5 minutes' incubation (37° C., 5% CO2) to detach cells, trypsin was quenched with 13 ml warmed complete growth medium and the cells harvested and diluted to 2.4×10^4 cells/ml for dispensing into 384-well clear-bottom black-walled plates (600 cells/well).
Following overnight incubation, growth medium was aspirated from each well and the cells washed twice with Assay Medium comprising Basal Medium Eagle supplemented with 3% heat-inactivated dialysed FBS plus 2 mM L-glutamine plus 20 μM L-serine (Sigma-Aldrich). After aspiration of the final wash medium, Assay Medium containing Test Compound was added to each well. DMSO vehicle controls were included on each plate.
Cells were incubated for 3 days in a humidified incubator (37° C., 5% CO2) at which point CelITox™ Green and CellTiter-Glo® reagents were prepared according to the manufacturer's instructions. Triton-X was added to HIGH wells for cytotoxicity determination and the plate incubated for 30 minutes (20° C., ambient humidity and pCO2). CelITox™ Green reagent was added to each well and the plate covered, placed on an orbital shaker @450 rpm for 2 minutes, and incubated in the dark for 15 minutes (20° C., ambient humidity and pCO2). Endpoint fluorescence was measured using a plate reader (PHERAstar® FSX, BMG Labtech).
Following cytotoxicity determination, CellTiter-Glo® reagent was added to each well and the plate placed on an orbital shaker @450 rpm for 2 minutes to lyse cells. Plates were incubated in the dark for 15-30 minutes (20° C., ambient humidity and pCO2) prior to endpoint luminescence measurement (PHERAstar® FSX, BMG Labtech).
Proliferation was calculated by normalizing luminescence signals to LOW controls obtained from a parallel plate processed at the time of Test Compound challenge and HIGH (DMSO vehicle) wells from the compound plate. IC50 values were determined from a 4-parameter logistic fit of compound concentration-response curves.
(In ATP-based viability assays light output follows the ATP content of the culture.)

T1 sequence (P14618 2-531 limits assumed): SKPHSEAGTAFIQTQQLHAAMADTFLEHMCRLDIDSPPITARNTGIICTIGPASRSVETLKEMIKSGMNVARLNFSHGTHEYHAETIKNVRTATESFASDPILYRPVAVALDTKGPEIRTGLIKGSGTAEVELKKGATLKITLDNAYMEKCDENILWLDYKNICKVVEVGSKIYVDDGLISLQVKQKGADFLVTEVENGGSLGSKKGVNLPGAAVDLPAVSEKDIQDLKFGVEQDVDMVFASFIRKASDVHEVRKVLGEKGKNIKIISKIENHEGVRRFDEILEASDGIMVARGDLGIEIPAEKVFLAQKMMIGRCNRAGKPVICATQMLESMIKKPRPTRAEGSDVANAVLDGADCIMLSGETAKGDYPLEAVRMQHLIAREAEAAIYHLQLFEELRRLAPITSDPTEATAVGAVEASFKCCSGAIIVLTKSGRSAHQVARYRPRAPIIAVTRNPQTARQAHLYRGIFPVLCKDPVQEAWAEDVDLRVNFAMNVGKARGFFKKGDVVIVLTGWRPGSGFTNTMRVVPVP

`O=c1c2ccc(S(=O)(=O)c3ccccc3)cc2cnn1Cc1cccnc1` [Example 65, 6-(phenylsulfonyl)-2-(pyridin-3-ylmethyl)phthalazin-1(2H)-one]: in assay [1], the Emax was determined as 98.6% and the EC50 was determined as 360 nM. Also, half-maximal inhibition in assay [2] (IC50) required 17.4 nM.
Taken in the same sequence, the figures for `NC(=O)c1ccccc1Cn1ncc2cc(S(=O)(=O)c3ccccc3)ccc2c1=O` [Example 66, 2-((1-oxo-6-(phenylsulfonyl)phthalazin-2(1H)-yl)methyl)benzamide] were 88.5%, 115 nM and 4.3 nM.
Take `COCC(c1ccccc1)n1ncc2cc(S(=O)(=O)c3ccccc3)ccc2c1=O` (stereo not drawn) [Example 67, 2-(2-methoxy-1-phenylethyl)-6-(phenylsulfonyl)phthalazin-1(2H)-one]: in assay [1], the Emax is 91.4% and the EC50 was 185 nM. The compound further showed an IC50 in assay [2] of 3.3 nM.
The corresponding values for `O=c1c2ccc(S(=O)(=O)c3ccccc3)cc2cnn1Cc1ccccc1` [Example 71, 2-benzyl-6-(phenylsulfonyl)phthalazin-1(2H)-one] are 102%, 115 nM and 14.1 nM.
The corresponding values for `COc1ccc(S(=O)(=O)c2ccc3c(=O)n(Cc4ccn(C)n4)ncc3c2)cc1` [Example 72, 6-((4-methoxyphenyl)sulfonyl)-2-((1-methyl-1H-pyrazol-3-yl)methyl)phthalazin-1(2H)-one] are 103%, 35.9 nM and 3.2 nM.
Taken in the same sequence, the figures for `COc1ccc(C(C)n2ncc3cc(S(=O)(=O)c4ccccc4)ccc3c2=O)cn1` (stereo not drawn) [Example 74, 2-(1-(6-methoxypyridin-3-yl)ethyl)-6-(phenylsulfonyl)phthalazin-1(2H)-one] were 91.2%, 218 nM and 38.7 nM.
Regarding `Cn1cc(Cl)c(Cn2ncc3cc(S(=O)(=O)c4ccccc4)ccc3c2=O)n1` [Example 76, 2-((4-chloro-1-methyl-1H-pyrazol-3-yl)methyl)-6-(phenylsulfonyl)phthalazin-1(2H)-one], in assay [1], the maximum response (Emax) was 101% and the EC50 was 105 nM. This compound also came in with a concentration for half-maximal inhibition (IC50) in assay [2] of 4.1 nM.
Taken in the same sequence, the figures for `Cc1nc(Cn2ncc3cc(S(=O)(=O)c4ccccc4)ccc3c2=O)cs1` [Example 77, 2-((2-methylthiazol-4-yl)methyl)-6-(phenylsulfonyl)phthalazin-1(2H)-one] were 106%, 63 nM and 4 nM.
The corresponding values for `O=c1c2ccc(S(=O)(=O)c3ccccc3)cc2cnn1C(F)(F)c1cccnc1` [Example 78, 2-(difluoro(pyridin-3-yl)methyl)-6-(phenylsulfonyl)phthalazin-1(2H)-one] are 99%, 802 nM and 89.1 nM.
Taken in the same sequence, the figures for `COc1ccccc1Cn1ncc2cc(S(=O)(=O)c3ccccc3)ccc2c1=O` [Example 79, 2-(2-methoxybenzyl)-6-(phenylsulfonyl)phthalazin-1(2H)-one] were 90.2%, 203 nM and 19.4 nM.
In the case of `COc1cccc(Cn2ncc3cc(S(=O)(=O)c4ccccc4)ccc3c2=O)c1` [Example 81, 2-(3-methoxybenzyl)-6-(phenylsulfonyl)phthalazin-1(2H)-one], in assay [1], the Emax came to 98.9% and the EC50 turned out to be 49.8 nM. For the same compound, half-maximal inhibition in assay [2] (IC50) was put at 6.7 nM.
Taken in the same sequence, the figures for `COCC(c1ccccc1)n1ncc2cc(S(=O)(=O)c3ccc(OC)cc3)ccc2c1=O` (stereo not drawn) [Example 82, 2-(2-methoxy-1-phenylethyl)-6-((4-methoxyphenyl)sulfonyl)phthalazin-1(2H)-one] were 87.4%, 80.9 nM and 3.5 nM.
For `CC(C)n1ccc(Cn2ncc3cc(S(=O)(=O)c4ccccc4)ccc3c2=O)n1` [Example 95, 2-((1-isopropyl-1H-pyrazol-3-yl)methyl)-6-(phenylsulfonyl)phthalazin-1(2H)-one], in assay [1], the Emax is 116% and the EC50 is 95.4 nM. Besides, the IC50 in assay [2] came out at 9.9 nM.
`COc1ccc(S(=O)(=O)c2ccc3c(=O)n(Cc4ccc(C)nc4O)ncc3c2)cc1` [Example 98, 2-((2-hydroxy-6-methylpyridin-3-yl)methyl)-6-(4-methoxyphenylsulfonyl)phthalazin-1(2H)-one]: in assay [1], the Emax is 82% and the concentration giving a half-maximal response (EC50) was 257 nM. The compound further displayed an IC50 in assay [2] of 9 nM.
Taken in the same sequence, the figures for `COc1ccc(S(=O)(=O)c2ccc3c(=O)n(Cc4c(C)ccnc4O)ncc3c2)cc1` [Example 99, 2-((2-hydroxy-4-methylpyridin-3-yl)methyl)-6-(4-methoxyphenylsulfonyl)phthalazin-1(2H)-one] were 107%, 138 nM and 4.6 nM.
Taken in the same sequence, the figures for `COc1ccc(S(=O)(=O)c2ccc3c(=O)n(Cc4cc(F)cnc4O)ncc3c2)cc1` [Example 100, 2-((5-fluoro-2-hydroxypyridin-3-yl)methyl)-6-(4-methoxyphenylsulfonyl)phthalazin-1(2H)-one] were 70.8%, 677 nM and 73.9 nM.
Taken in the same sequence, the figures for `COc1ccc(S(=O)(=O)c2ccc3c(=O)n(Cc4cc(C(C)C)cnc4O)ncc3c2)cc1` [Example 101, 2-((2-hydroxy-5-isopropylpyridin-3-yl)methyl)-6-(4-methoxyphenylsulfonyl)phthalazin-1(2H)-one] were 74.5%, 240 nM and 354 nM.
For `COc1ccc(S(=O)(=O)c2ccc3c(=O)n(Cc4c(Cl)ccnc4O)ncc3c2)cc1` [Example 102, 2-((4-chloro-2-hydroxypyridin-3-yl)methyl)-6-(4-methoxyphenylsulfonyl) phthalazin-1(2H)-one], in assay [1], the Emax stood at 94.9% and the concentration giving a half-maximal response (EC50) was found to be 69.9 nM. The compound also came in with an IC50 in assay [2] of 2.2 nM.
Taken in the same sequence, the figures for `COc1ccc(S(=O)(=O)c2ccc3c(=O)n(Cc4c(F)ccnc4O)ncc3c2)cc1` [Example 103, 2-((4-fluoro-2-hydroxypyridin-3-yl)methyl)-6-(4-methoxyphenylsulfonyl) phthalazin-1(2H)-one] were 98.8%, 41.3 nM and 0.7 nM.
The corresponding values for `COc1ccc(S(=O)(=O)c2ccc3c(=O)n(Cc4n[nH]cc4C)ncc3c2)cc1` [Example 104, 6-((4-methoxyphenyl)sulfonyl)-2-((4-methyl-1H-pyrazol-3-yl)methyl)phthalazin-1(2H)-one] are 104%, 56.5 nM and 1.2 nM.
Taken in the same sequence, the figures for `COc1ccc(S(=O)(=O)c2ccc3c(=O)n(Cc4ccc(OC)cc4C(N)=O)ncc3c2)cc1` [Example 106, 5-methoxy-2-((6-(4-methoxyphenylsulfonyl)-1-oxophthalazin-2(1H)-yl)methyl)benzamide] were 93%, 142 nM and 6.2 nM.
For `O=c1c2ccc(S(=O)(=O)c3ccccc3)cc2cnn1Cc1cc2ccccn2n1` [Example 108, 6-(phenylsulfonyl)-2-(pyrazolo[1,5-a]pyridin-2-ylmethyl)phthalazin-1(2H)-one], in assay [1], the Emax was 132% and the EC50 stood at 178 nM. In assay [2], this compound displayed an IC50 of 2 nM.
